# Experimental data from article PMC10709440, “High-throughput ligand profile characterization in novel cell lines expressing seven heterologous insect olfactory receptors for the detection of volatile plant biomarkers” (Scientific Reports, 2023).
# “And” between values parts separate entries of the source, which are not always exact repeats. Identical values can stand only once. Like-named read-outs stand apart in the source and are kept apart here.
# Tests used:
# OR98a = system: OR98a; set-up: method as in earlier work; details: DoOR database value, ref DoOR, cited from earlier work
# OR47a = system: OR47a; set-up: method as in earlier work; details: DoOR database value, ref DoOR, cited from earlier work
# OR85b = system: OR85b; set-up: method as in earlier work; details: DoOR database value, ref DoOR, cited from earlier work
# OR10a = system: OR10a; set-up: method as in earlier work; details: DoOR database value, ref DoOR, cited from earlier work
# Drosophila OR47a = target: T1, Drosophila OR47a (Drosophila melanogaster, UniProt P81921); assay: Calcium ion fluorescence (GCaMP6) assay, OR47a stable HEK293 cell line; assay type: cell-based; details: for OR47a response (VUAA1-normalized) at 1 μM / OR47a response (VUAA1-normalized) at 10 μM / OR47a response (VUAA1-normalized) at 100 μM / Average response: OR47a cell line; for OR47a response (VUAA1-normalized) at 1 μM: VOC concentration 1 μM; for OR47a response (VUAA1-normalized) at 10 μM: VOC concentration 10 μM; for OR47a response (VUAA1-normalized) at 100 μM: VOC concentration 100 μM; for Average response: mean of biological replicates; for DF norm AVERAGE OR47a: threshold 0.05, below shown as 0
# T1 construct: expressed in transfected cells
# T1 sequence (P81921 1-385): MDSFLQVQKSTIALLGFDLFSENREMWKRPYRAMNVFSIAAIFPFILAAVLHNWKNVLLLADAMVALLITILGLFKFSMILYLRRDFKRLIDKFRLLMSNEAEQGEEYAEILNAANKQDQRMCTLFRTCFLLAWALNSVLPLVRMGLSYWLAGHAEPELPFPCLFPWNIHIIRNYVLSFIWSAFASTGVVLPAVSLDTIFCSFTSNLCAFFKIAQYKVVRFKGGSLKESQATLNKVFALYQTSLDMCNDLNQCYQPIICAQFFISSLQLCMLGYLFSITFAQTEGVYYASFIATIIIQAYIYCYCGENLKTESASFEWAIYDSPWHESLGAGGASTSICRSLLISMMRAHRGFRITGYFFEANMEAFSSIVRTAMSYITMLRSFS
# T1 sequence (Q9VNB5 1-486 partner): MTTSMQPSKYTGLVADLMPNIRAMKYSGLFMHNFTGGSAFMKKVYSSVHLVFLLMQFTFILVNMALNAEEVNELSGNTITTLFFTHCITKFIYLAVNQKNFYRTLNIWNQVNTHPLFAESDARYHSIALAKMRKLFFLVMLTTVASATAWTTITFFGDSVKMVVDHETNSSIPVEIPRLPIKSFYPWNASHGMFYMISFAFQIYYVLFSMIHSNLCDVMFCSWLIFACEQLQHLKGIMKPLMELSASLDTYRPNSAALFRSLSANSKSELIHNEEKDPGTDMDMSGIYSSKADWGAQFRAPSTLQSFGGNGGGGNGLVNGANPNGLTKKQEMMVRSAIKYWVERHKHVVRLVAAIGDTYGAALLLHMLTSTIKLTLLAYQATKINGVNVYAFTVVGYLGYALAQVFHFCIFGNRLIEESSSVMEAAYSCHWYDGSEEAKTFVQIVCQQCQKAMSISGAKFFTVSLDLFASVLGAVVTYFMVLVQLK
# Outline: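 Responses are VUAA1-normalized ΔF: each VOC-evoked calcium signal, (FMAX−F0)/F0 over 30 s after injection, divided by the same line's mean 50 µM VUAA1 response. Cells were doxycycline-induced HEK293 with GCaMP6 and the cognate Drosophila OR, in HEPES buffer pH 7.3; ligands tested 0.01–100 μM.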
# OR13a = system: OR13a; set-up: method as in earlier work; details: DoOR database value, ref DoOR, cited from earlier work
# OR49b = system: OR49b; set-up: method as in earlier work; details: DoOR database value, ref DoOR, cited from earlier work
# [1] = HEK293, read-out: OR47a Average response (VUAA1-normalized)
# [2] = ligand concentration 1 (unit not given)
# [3] = ligand concentration 10 (unit not given)
# [4] = ligand concentration 100 (unit not given)
# [5] = HEK293, read-out: OR47a response (VUAA1-normalized response)
structure (smiles),measurement,setting,value
CCCCCOC(C)=O [pentyl acetate],OR98a DoOR response,OR98a; OR98a,0.64
same,OR47a DoOR response,OR47a; OR47a,0.82
same,OR85b DoOR response,OR85b; OR85b,0.56
same,OR10a DoOR response,OR10a; OR10a,0.03
same,EC50,"Drosophila OR47a; AVERAGE EC50, the 14th table, corresponds to average LOG EC50, given with 95% confidence interval",2.22 µM
same,EC50,"Drosophila OR47a; EC50, AVERAGE of replicate fits, the 14th table, arithmetic average, N 5",2.41 µM
same,EC50,"Drosophila OR47a; EC50, OR47a cell line, fitted Hill equation, Hill coefficient constrained to 1, maximal response max 1",2.22 µM
same,EC50,"Drosophila OR47a; EC50, fitted average curve, the 14th table, fit to the average curve, n 0.854956",2.56 µM
same,EC50,"Drosophila OR47a; EC50, fitted parameter per biological replicate, the 14th table, individual replicate fits",1.81 µM and 2.84 µM and 3.36 µM and 2.98 µM and 1.05 µM
same,activation at 1 µM,Drosophila OR47a; [1],41%
same,activation at 10 µM,Drosophila OR47a; [1],85%
same,activation at 100 µM,Drosophila OR47a; [1],76%
same,Emax,"Drosophila OR47a; HEK293, read-out: VUAA1 normalized MAX response",96%
same,EC50,"Drosophila OR47a; LOG EC50, AVERAGE of replicate fits, the 14th table, N 5",2.22 µM
same,EC50,"Drosophila OR47a; LOG EC50, fitted parameter per biological replicate, the 14th table, OR47a D-R pentyl acetate, individual replicate fits, MIN 0, n 1",1.81 µM and 2.84 µM and 3.36 µM and 2.98 µM and 1.05 µM
same,OR47a response (VUAA1-normalized) at 1 μM,Drosophila OR47a,0.41
same,OR47a response (VUAA1-normalized) at 10 μM,Drosophila OR47a,0.85
same,OR47a response (VUAA1-normalized) at 100 μM,Drosophila OR47a,0.76
same,Average response,Drosophila OR47a; odorant cc. 1 µM,0.41
same,Average response,Drosophila OR47a; odorant cc. 10 µM,0.85
same,Average response,Drosophila OR47a; odorant cc. 100 µM,0.76
same,DF norm AVERAGE OR47a,Drosophila OR47a; [2],0.4101
same,DF norm AVERAGE OR47a,Drosophila OR47a; [3],0.8532
same,DF norm AVERAGE OR47a,Drosophila OR47a; [4],0.7595
same,"dose-response, response per biological replicate","Drosophila OR47a; the 14th table, VOC concentration 0.15",0 (2×) and 0.08996
same,"dose-response, AVERAGE response","Drosophila OR47a; the 14th table, VOC concentration 0.15, N 3",0.02999
same,"dose-response, response per biological replicate","Drosophila OR47a; the 14th table, VOC concentration 0.3",0 (2×) and 0.06871 and 0.1596
same,"dose-response, AVERAGE response","Drosophila OR47a; the 14th table, VOC concentration 0.3, N 4",0.05709
same,"dose-response, response per biological replicate","Drosophila OR47a; the 14th table, VOC concentration 0.6",0.1609 and 0.1169 and 0.06805 and 0.08558 and 0.2252
same,"dose-response, AVERAGE response","Drosophila OR47a; the 14th table, VOC concentration 0.6, N 5",0.1313
same,"dose-response, response per biological replicate","Drosophila OR47a; the 14th table, VOC concentration 1.25",0.1915 and 0.1656 and 0.1715 and 0.5641
same,"dose-response, AVERAGE response","Drosophila OR47a; the 14th table, VOC concentration 1.25, N 4",0.2732
same,"dose-response, response per biological replicate","Drosophila OR47a; the 14th table, VOC concentration 2.5",0.3991 and 0.4483 and 0.3729 and 0.3818 and 0.7224
same,"dose-response, AVERAGE response","Drosophila OR47a; the 14th table, VOC concentration 2.5, N 5",0.4649
same,"dose-response, response per biological replicate","Drosophila OR47a; the 14th table, VOC concentration 5",0.9001 and 0.6438 and 0.6113 and 0.6294 and 0.9303
same,"dose-response, AVERAGE response","Drosophila OR47a; the 14th table, VOC concentration 5, N 5",0.743
same,"dose-response, response per biological replicate","Drosophila OR47a; the 14th table, VOC concentration 10",0.8372 and 0.7794 and 0.895 and 0.7979 and 1.027
same,"dose-response, AVERAGE response","Drosophila OR47a; the 14th table, VOC concentration 10, N 5",0.8674
same,"dose-response, response per biological replicate","Drosophila OR47a; the 14th table, VOC concentration 20",1.202 and 0.8226 and 0.9992 and 0.8736 and 1.052
same,"dose-response, AVERAGE response","Drosophila OR47a; the 14th table, VOC concentration 20, N 5",0.99
same,"dose-response, response per biological replicate","Drosophila OR47a; the 14th table, VOC concentration 40",1.114 and 0.9003 and 0.922 and 0.9538 and 0.9871
same,"dose-response, AVERAGE response","Drosophila OR47a; the 14th table, VOC concentration 40, N 5",0.9754
same,"dose-response, response per biological replicate","Drosophila OR47a; the 14th table, VOC concentration 60",1.02 and 0.8294 and 1.116 and 0.8263 and 0.955
same,"dose-response, AVERAGE response","Drosophila OR47a; the 14th table, VOC concentration 60, N 5",0.9493
same,"dose-response, response per biological replicate","Drosophila OR47a; the 14th table, VOC concentration 80",0.8413 and 0.8664 and 0.788 and 0.8411
same,"dose-response, AVERAGE response","Drosophila OR47a; the 14th table, VOC concentration 80, N 4",0.8342
same,"dose-response, response per biological replicate","Drosophila OR47a; the 14th table, VOC concentration 100",0.8402 and 0.9595 and 0.7641 and 0.7857
same,"dose-response, AVERAGE response","Drosophila OR47a; the 14th table, VOC concentration 100, N 4",0.8374
same,AVERAGE MAX,"Drosophila OR47a; the 14th table, average of replicate fits, N 5",0.9609
same,"MAX, fitted average curve","Drosophila OR47a; the 14th table, fit to the average curve, n 0.854956",1
same,"MAX, fitted parameter per biological replicate","Drosophila OR47a; the 14th table, individual replicate fits",1 (2×) and 0.9126 and 0.907 and 0.9849
same,OR13a DoOR response,OR13a; OR13a,0.39
same,OR49b DoOR response,OR49b; OR49b,0.022
C=CCc1ccc(O)c(OC)c1 [eugenol],OR98a DoOR response,OR98a,0.15
same,OR47a DoOR response,OR47a,-0.013
same,OR85b DoOR response,OR85b,0.053
same,OR10a DoOR response,OR10a,0.15
same,activation at 1 µM,Drosophila OR47a; [5],0%
same,activation at 10 µM,Drosophila OR47a; [5],0%
same,activation at 100 µM,Drosophila OR47a; [5],0%
same,Average response,Drosophila OR47a; odorant cc. 1 µM,0.00
same,Average response,Drosophila OR47a; odorant cc. 10 µM,0.0283
same,Average response,Drosophila OR47a; odorant cc. 100 µM,0.0436
same,DF norm AVERAGE OR47a,Drosophila OR47a; [2],0
same,DF norm AVERAGE OR47a,Drosophila OR47a; [3],0
same,DF norm AVERAGE OR47a,Drosophila OR47a; [4],0
same,OR13a DoOR response,OR13a,0.024
same,OR49b DoOR response,OR49b,0.002
C=CC(C)(O)CCC=C(C)C (centres unmarked) [linalool],OR98a DoOR response,OR98a; OR98a,0.47
same,OR47a DoOR response,OR47a; OR47a,0.04
same,OR85b DoOR response,OR85b; OR85b,0.16
same,OR10a DoOR response,OR10a; OR10a,0.001
same,OR47a response (VUAA1-normalized) at 1 μM,Drosophila OR47a,0.00
same,OR47a response (VUAA1-normalized) at 10 μM,Drosophila OR47a,0.00
same,OR47a response (VUAA1-normalized) at 100 μM,Drosophila OR47a,0.00
same,Average response,Drosophila OR47a; odorant cc. 1 µM,0.00
same,Average response,Drosophila OR47a; odorant cc. 10 µM,0.0374
same,Average response,Drosophila OR47a; odorant cc. 100 µM,0.00
same,DF norm AVERAGE OR47a,Drosophila OR47a; [2],0
same,DF norm AVERAGE OR47a,Drosophila OR47a; [3],0
same,DF norm AVERAGE OR47a,Drosophila OR47a; [4],0
same,OR13a DoOR response,OR13a; OR13a,0.16
same,OR49b DoOR response,OR49b; OR49b,0.016
